Test in all cases: relative viability (nuclei count vs DMSO), 5 days (fraction); higher = more cells survive
Compound in assay [1]: CCC1=CN=CN=C1N2CCN(CC2)CC3=NC4=C(N3)C=C(C=C4)C(F)(F)F + COc1cccc2cc(-c3nc([C@H]4CC[C@H](C(=O)O)CC4)n4ncnc(N)c34)[nH]c12 [OSI-027] (partner 0.5 µM)
Put shortly: (§1)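 Lung cancer cell lines in 1536-well plates got either a single drug or a fixed anchor-drug dose together with five library-drug doses (not always all listed) in √10 steps, by pin tool, on the day after seeding. Nuclei were counted after 5 days, and relative viability is the treated-to-vehicle ratio of nuclei counts. Values are medians of duplicate plates.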

Compound in assay [2]: CCn1c(-c2nonc2N)nc2cnc(Oc3cccc(NC(=O)c4ccc(OCCN5CCOCC5)cc4)c3)cc21 + CC(=O)Nc1cccc(-n2c(=O)n(C3CC3)c(=O)c3c(Nc4ccc(I)cc4F)n(C)c(=O)c(C)c32)c1 [Trametinib] (partner 0.02 µM)
The method, boiled down:
as §1

Compound in the assay “Mirin + Navitoclax”: N=C1NC(=O)/C(=C/c2ccc(O)cc2)S1 [Mirin] + CC1(C)CCC(c2ccc(Cl)cc2)=C(CN2CCN(c3ccc(C(=O)NS(=O)(=O)c4ccc(N[C@H](CCN5CCOCC5)CSc5ccccc5)c(S(=O)(=O)C(F)(F)F)c4)cc3)CC2)C1 [Navitoclax] (partner 0.5 µM)
Put shortly: as §1

Compound in the assay “Mirin + Olaparib”: N=C1NC(=O)/C(=C/c2ccc(O)cc2)S1 [Mirin] + O=C(c1cc(Cc2n[nH]c(=O)c3ccccc23)ccc1F)N1CCN(C(=O)C2CC2)CC1 [Olaparib] (partner 8 µM)
The method, boiled down: as §1

This is an account of results in the supplement of paper PMC10307832.

Take UMC-11: the relative viability in assay [1] (first compound 0.04 µM) was determined as 0.464; in assay [1] (first compound 0.1265 µM), 0.495; in assay [1] (first compound 0.4 µM), 0.417; in assay [1] (first compound 1.265 µM), 0.445; in assay [1] (first compound 4 µM), 0.406; in assay [2] (first compound 0.04 µM), 0.609. Further, the relative viability in assay [2] (first compound 0.1265 µM) came out at 0.607; in assay [2] (first compound 0.4 µM) it was 0.298; in assay [2] (first compound 1.265 µM), 0.0887; in assay [2] (first compound 4 µM) it was 0.963; with Mirin + Navitoclax (first compound 0.25 µM), 0.324; in the assay with Mirin + Navitoclax (first compound 0.7906 µM), 0.312. Also, the relative viability with Mirin + Navitoclax (first compound 2.5 µM) came to 0.283; in the assay with Mirin + Navitoclax (first compound 7.906 µM) it was 0.276; in the assay with Mirin + Navitoclax (first compound 25 µM), 0.209; in the assay with Mirin + Olaparib (first compound 0.25 µM), 0.382; with Mirin + Olaparib (first compound 0.7906 µM), 0.316; with Mirin + Olaparib (first compound 2.5 µM), 0.332. Moreover, the results for the relative viability in the assay with Mirin + Olaparib (first compound 7.906 µM) and in the assay with Mirin + Olaparib (first compound 25 µM) were 0.279 and 0.331, respectively.
